Experimental findings from the supplement of paper PMC10307832 are described below.

The first experiment deals with CAL-12T. The experiment can be described thus: relative viability (nuclei count vs DMSO), 5 days (fraction); higher = more cells survive. As to conditions: first compound 0.8 µM. The method in brief:
(§1)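 Relative viability equals treated-well nuclei counts divided by vehicle-well nuclei counts. Counts came from 4× images of lung cancer cell lines grown in 1536-well plates for 5 days after pin-tool dosing on the day after seeding. Dosing used one drug alone or a fixed anchor-drug dose plus five library-drug doses (not always all listed) in √10 steps, and values are medians of duplicate plates.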
For `CCCCCCCCCCCC1=C(O)C(=O)C=C(O)C1=O` [Embelin] + CC(=O)c1c(C)c2cnc(Nc3ccc(N4CCNCC4)cn3)nc2n(C2CCCC2)c1=O [Palbociclib] (partner 0.5 µM), the relative viability was determined as 0.538.
Still for that read-out and setting: as for `CCCCCCCCCCCC1=C(O)C(=O)C=C(O)C1=O` [Embelin] + COc1cccc2cc(-c3nc([C@H]4CC[C@H](C(=O)O)CC4)n4ncnc(N)c34)[nH]c12 [OSI-027] (partner 0.5 µM), the figure is 0.817; as for `CCCCCCCCCCCC1=C(O)C(=O)C=C(O)C1=O` [Embelin] + Nc1nc2[nH]cc(CCc3ccc(C(=O)N[C@@H](CCC(=O)O)C(=O)O)cc3)c2c(=O)[nH]1 [Pemetrexed] (partner 0.2 µM), 1.4.

Still in this experiment, the particulars now being: first compound 2.53 µM.
Compound `CCCCCCCCCCCC1=C(O)C(=O)C=C(O)C1=O` [Embelin] + CCNC(=O)c1noc(-c2cc(C(C)C)c(O)cc2O)c1-c1ccc(CN2CCOCC2)cc1 [Luminespib] (partner 0.01 µM) had a relative viability of 0.626.
`CCCCCCCCCCCC1=C(O)C(=O)C=C(O)C1=O` [Embelin] + Cc1nc(Nc2ncc(C(=O)Nc3c(C)cccc3Cl)s2)cc(N2CCN(CCO)CC2)n1 [Dasatinib] (partner 0.075 µM) showed a relative viability of 0.481.
With `CCCCCCCCCCCC1=C(O)C(=O)C=C(O)C1=O` [Embelin] + CC(=O)c1c(C)c2cnc(Nc3ccc(N4CCNCC4)cn3)nc2n(C2CCCC2)c1=O [Palbociclib] (partner 0.5 µM), the relative viability turned out to be 0.331.
Still for that read-out and setting: next, `CCCCCCCCCCCC1=C(O)C(=O)C=C(O)C1=O` [Embelin] + COc1cccc2cc(-c3nc([C@H]4CC[C@H](C(=O)O)CC4)n4ncnc(N)c34)[nH]c12 [OSI-027] (partner 0.5 µM): 0.513; `CCCCCCCCCCCC1=C(O)C(=O)C=C(O)C1=O` [Embelin] + Nc1nc2[nH]cc(CCc3ccc(C(=O)N[C@@H](CCC(=O)O)C(=O)O)cc3)c2c(=O)[nH]1 [Pemetrexed] (partner 0.2 µM): 1.1.

Still in this experiment, the particulars now being: first compound 8 µM.
Turning to `CCCCCCCCCCCC1=C(O)C(=O)C=C(O)C1=O` [Embelin] + CCNC(=O)c1noc(-c2cc(C(C)C)c(O)cc2O)c1-c1ccc(CN2CCOCC2)cc1 [Luminespib] (partner 0.01 µM), the relative viability is 0.189.
Still for that read-out and setting: next, `CCCCCCCCCCCC1=C(O)C(=O)C=C(O)C1=O` [Embelin] + Cc1nc(Nc2ncc(C(=O)Nc3c(C)cccc3Cl)s2)cc(N2CCN(CCO)CC2)n1 [Dasatinib] (partner 0.075 µM): 0.539; `CCCCCCCCCCCC1=C(O)C(=O)C=C(O)C1=O` [Embelin] + CC(=O)c1c(C)c2cnc(Nc3ccc(N4CCNCC4)cn3)nc2n(C2CCCC2)c1=O [Palbociclib] (partner 0.5 µM): 0.553; `CCCCCCCCCCCC1=C(O)C(=O)C=C(O)C1=O` [Embelin] + COc1cccc2cc(-c3nc([C@H]4CC[C@H](C(=O)O)CC4)n4ncnc(N)c34)[nH]c12 [OSI-027] (partner 0.5 µM): 0.665.
As to `CCCCCCCCCCCC1=C(O)C(=O)C=C(O)C1=O` [Embelin] + Nc1nc2[nH]cc(CCc3ccc(C(=O)N[C@@H](CCC(=O)O)C(=O)O)cc3)c2c(=O)[nH]1 [Pemetrexed] (partner 0.2 µM), the relative viability is 1.06.

For the next experiment, the system named is COR-L 105. Described as above. As to conditions: first compound 0.08 µM. In outline:
as §1
In turn, `CCCCCCCCCCCC1=C(O)C(=O)C=C(O)C1=O` [Embelin] + CCNC(=O)c1noc(-c2cc(C(C)C)c(O)cc2O)c1-c1ccc(CN2CCOCC2)cc1 [Luminespib] (partner 0.01 µM) displayed a relative viability of 0.778.
For `CCCCCCCCCCCC1=C(O)C(=O)C=C(O)C1=O` [Embelin] + Cc1nc(Nc2ncc(C(=O)Nc3c(C)cccc3Cl)s2)cc(N2CCN(CCO)CC2)n1 [Dasatinib] (partner 0.075 µM), the relative viability came out at 0.339.
Consider `CCCCCCCCCCCC1=C(O)C(=O)C=C(O)C1=O` [Embelin] + CC(=O)c1c(C)c2cnc(Nc3ccc(N4CCNCC4)cn3)nc2n(C2CCCC2)c1=O [Palbociclib] (partner 0.5 µM), for which the relative viability was found to be 0.435.
With `CCCCCCCCCCCC1=C(O)C(=O)C=C(O)C1=O` [Embelin] + COc1cccc2cc(-c3nc([C@H]4CC[C@H](C(=O)O)CC4)n4ncnc(N)c34)[nH]c12 [OSI-027] (partner 0.5 µM), the relative viability is 0.693.
With `CCCCCCCCCCCC1=C(O)C(=O)C=C(O)C1=O` [Embelin] + Nc1nc2[nH]cc(CCc3ccc(C(=O)N[C@@H](CCC(=O)O)C(=O)O)cc3)c2c(=O)[nH]1 [Pemetrexed] (partner 0.2 µM), the relative viability is 1.15.

The same experiment, now with this note: first compound 0.8 µM.
Take `CCCCCCCCCCCC1=C(O)C(=O)C=C(O)C1=O` [Embelin] + CCNC(=O)c1noc(-c2cc(C(C)C)c(O)cc2O)c1-c1ccc(CN2CCOCC2)cc1 [Luminespib] (partner 0.01 µM): the relative viability came to 0.894.
Same read-out and setting: next, `CCCCCCCCCCCC1=C(O)C(=O)C=C(O)C1=O` [Embelin] + Cc1nc(Nc2ncc(C(=O)Nc3c(C)cccc3Cl)s2)cc(N2CCN(CCO)CC2)n1 [Dasatinib] (partner 0.075 µM): 0.544; `CCCCCCCCCCCC1=C(O)C(=O)C=C(O)C1=O` [Embelin] + CC(=O)c1c(C)c2cnc(Nc3ccc(N4CCNCC4)cn3)nc2n(C2CCCC2)c1=O [Palbociclib] (partner 0.5 µM): 0.399.
`CCCCCCCCCCCC1=C(O)C(=O)C=C(O)C1=O` [Embelin] + COc1cccc2cc(-c3nc([C@H]4CC[C@H](C(=O)O)CC4)n4ncnc(N)c34)[nH]c12 [OSI-027] (partner 0.5 µM) gave a relative viability of 0.836.
The compound `CCCCCCCCCCCC1=C(O)C(=O)C=C(O)C1=O` [Embelin] + Nc1nc2[nH]cc(CCc3ccc(C(=O)N[C@@H](CCC(=O)O)C(=O)O)cc3)c2c(=O)[nH]1 [Pemetrexed] (partner 0.2 µM) showed a relative viability of 1.21.

Still in this experiment, the particulars now being: first compound 2.53 µM.
As to `CCCCCCCCCCCC1=C(O)C(=O)C=C(O)C1=O` [Embelin] + CCNC(=O)c1noc(-c2cc(C(C)C)c(O)cc2O)c1-c1ccc(CN2CCOCC2)cc1 [Luminespib] (partner 0.01 µM), the relative viability was determined as 0.737.
Still for that read-out and setting: next, `CCCCCCCCCCCC1=C(O)C(=O)C=C(O)C1=O` [Embelin] + Cc1nc(Nc2ncc(C(=O)Nc3c(C)cccc3Cl)s2)cc(N2CCN(CCO)CC2)n1 [Dasatinib] (partner 0.075 µM): 0.355.
The same measure, in the same setting: next, `CCCCCCCCCCCC1=C(O)C(=O)C=C(O)C1=O` [Embelin] + CC(=O)c1c(C)c2cnc(Nc3ccc(N4CCNCC4)cn3)nc2n(C2CCCC2)c1=O [Palbociclib] (partner 0.5 µM): 0.405; `CCCCCCCCCCCC1=C(O)C(=O)C=C(O)C1=O` [Embelin] + COc1cccc2cc(-c3nc([C@H]4CC[C@H](C(=O)O)CC4)n4ncnc(N)c34)[nH]c12 [OSI-027] (partner 0.5 µM): 0.602.
The same measure, in the same setting: next, `CCCCCCCCCCCC1=C(O)C(=O)C=C(O)C1=O` [Embelin] + Nc1nc2[nH]cc(CCc3ccc(C(=O)N[C@@H](CCC(=O)O)C(=O)O)cc3)c2c(=O)[nH]1 [Pemetrexed] (partner 0.2 µM): 1.

Staying with this experiment, now noted: first compound 8 µM.
The compound `CCCCCCCCCCCC1=C(O)C(=O)C=C(O)C1=O` [Embelin] + CCNC(=O)c1noc(-c2cc(C(C)C)c(O)cc2O)c1-c1ccc(CN2CCOCC2)cc1 [Luminespib] (partner 0.01 µM) gave a relative viability of 0.624.
Turning to `CCCCCCCCCCCC1=C(O)C(=O)C=C(O)C1=O` [Embelin] + Cc1nc(Nc2ncc(C(=O)Nc3c(C)cccc3Cl)s2)cc(N2CCN(CCO)CC2)n1 [Dasatinib] (partner 0.075 µM), the relative viability came to 0.33.
The same measure, in the same setting: as for `CCCCCCCCCCCC1=C(O)C(=O)C=C(O)C1=O` [Embelin] + CC(=O)c1c(C)c2cnc(Nc3ccc(N4CCNCC4)cn3)nc2n(C2CCCC2)c1=O [Palbociclib] (partner 0.5 µM), the figure is 0.439.
